Data reported in patent US20040120926A1, “Reactive oxygen metabolite inhibitors for use in compositions and methods of treatment” (priority 1999, published 2004).

Legend:
T-cells and NK-cells = test: MO-induced apoptosis in T-cells and NK-cells (flow cytometry, reduced forward and increased right angle scatter); type: cell-based, human; conditions: lymphocytes with MO, DPI 100 nM, Fas:Fc-IgG 20 μg/ml
mouse sarcoma (MCG) = test: In vivo tumor growth of subcutaneously inoculated mouse sarcoma (MCG); parameters: species or system C57/b16 mice; conditions: for Mean Tumor Weight: control .941
Method: The following in vivo study was conducted to determine DPI's effectiveness in inhibiting tumor growth rate. C57/b16 mice were subcutaneously inoculated with mouse sarcoma (MCG) on Day 1. The mice were then subcutaneously injected once daily for Days 1-9 with either NaCl or DPI. There were 5 different treatment groups, including the control group that received NaCl. The other four treatment groups were administered DPI subcutaneously at dosages of either 1 mg/kg, 10 mg/kg, 50 mg/kg, or 100 mg/kg. On Day 9, the mice were killed and tumor size and weight was measured. The resulting tumor weights are provided below in Table 2.

[1] = test system: T-cells (CD3ε+) and NK-cells (CD56+); test: IL-2-induced CD69 expression on T-cells and NK-cells incubated with or without MO (flow cytometry); type: cell-based, human
Method: FIG. 1 is a graph showing the protection of CD3ε+ T-cells against oxidative inhibition by DPI. Lymphocytes and MO were recovered from peripheral blood as described herein. A mixture of MO and lymphocytes was treated with culture medium (control, open circles) or IL-2 (100 U/ml; filled circles) for 16 hrs. After incubation, lymphocytes were labeled with antibodies to CD3ε and CD69. […] Similar results were obtained when CD69 expression was examined in CD56+. NK-cells incubated with MO: 29.5% (control) or 79.0% (DPI 1000 nM) of NK-cells acquired the CD69 antigen in response to IL-2. […] The results are representative of three similar experiments.
(§1) Peripheral venous blood was obtained as freshly prepared leukopacks from healthy blood donors at the Blood Centre, Sahlgren's Hospital, Goteborg, Sweden, to study the activation characteristics of cytotoxic lymphocytes in the presence and absence of MO, and ROM inhibitors. The blood (65 ml) was mixed with 92.5 ml Iscove's medium, 35 ml 6% Dextran (Kabi Pharmacia, Stockholm, Sweden) and 7.5 ml acid citrate dextrose (ACD) (Baxter, Deerfield, Ill.). After incubation for 15 minutes at room temperature, the supernatant was carefully layered onto Ficoll-Hypaque (Lymphoprep, Myegaard, Norway). Mononuclear cells (MNC) were collected at the interface after centrifugation at 380 g for 15 minutes at room temperature, washed twice in PBS and resuspended in Iscove's medium supplemented with 10% human AB+serum. During all further separation of cells, the cell suspensions were kept in siliconized test tubes (Vacuette, Greiner, Stockholm).
The MNC were further separated into lymphocyte and monocyte (MO) populations using the counter-current centrifugal elutriation (CCE) technique originally described by Yasaka and co-workers (Yasaka, T. et al., J. Immunol., 127:1515) with modifications as described in Hansson, M., et al. (J. Immunol., 156: 42 (1996); hereby incorporated by reference). Briefly, the MNC were resuspended in elutration buffer containing 0.05% BSA and 0.015% EDTA in buffered NaCl and fed into a Beckman J2-21 ultracentrifuge with a JE-6B rotor at 2100 rpm. A fraction with >90% MO was obtained at a flow rate of 18 ml/min. A lymphocyte fraction enriched for NK-cells (CD3^−/56^+ phenotype) and T-cells (CD3^+/56^−) was recovered at flow rates of 14-15 ml/min. This fraction contained <3% MO and consisted of CD3,^−/56^+ NK-cells (45-50%), CD3,^+/56^− T-cells (35-40%), CD3,^−/56^− cells (5-10%), and CD3,^+/56^+ cells (1-5%), as judged by flow cytometry. In some experiments, dynabeads (Dynal A/S, Oslo, Norway) coated with anti-CD56 were used to obtain purified lymphocyte preparations of T-cells, as described in detail by Hansson, M., et al., incorporated above.
Flow cytometry was used in the experiments described below to identify the various sub-populations of T-cells. Flow cytometry permits an investigator to examine a population of cells using a number of labeled probes to differentiate sub-populations within the larger whole. In these experiments, the CD3 marker was used to identify the sub-population of T-cells and the CD4 and CD8 markers were used to further identify the sub-population of T-cells into T helper cells and CTLs. The effects of MO exposure in the presence and absence of histamine and T-cell activation compounds were determined using the CD69 T-cell activation marker. The expression of the different markers was estimated in a lymphocyte gate using flow cytometry (as described in Hellstrand, K., et al. Cell. Immunol. 138: 44-54 (1991), and hereby incorporated by reference).
The following protocol was used in experiments reporting the detection of surface antigens of cell populations. One million cells were incubated with appropriate fluorescein isothiocynate (FITC) and phycoerythrin (PE) conjugated monoclonal antibodies (Becton & Dickinson, Stockholm, Sweden; 1:1/10^6 cells), on ice for 30 minutes. […]

[2] = test system: elutriated MO (monocytes/macrophages); test: Chemiluminescence assay of spontaneous isoluminol-enhanced extracellular superoxide anion generation in elutriated MO; type: cell-based, human
Method: as §1, with “Stockholm). […]” for “Stockholm).”
To assess whether DPI and histamine inhibited the spontaneous release of ROM from MO, a chemiluminescence assay was performed that specifically quantified extracellular ROM (superoxide anion). The spontaneous isoluminol-enhanced extracellular generation of superoxide anion in elutriated MO was measured using the assay described in Hellstrand, K., et al., J Immunol, 153:4940-4947 (1994) and in Lundqvist & Dahlgren, Free Radic. […]

[3] = Scavenging of superoxide anion; conditions: 200 U/ml

**Q.** With `c1ccc([I+]c2ccccc2)cc1` [DPI, diphenyliodonium] as the compound, how does the “apoptotic CD3+/CD69+(%)” value (T-cells and NK-cells; control 52) read?
**A.** 7%

**Q.** What about the “apoptotic CD56+/CD69+(%)” value (T-cells and NK-cells; control 71) of the same compound?
**A.** 13%

**Q.** What about the “Mean Tumor Weight” value (mouse sarcoma (MCG); 1 mg/kg s.c. once daily Days 1-9, Day 9) of the same compound?
**A.** 1.107 gms

**Q.** And the “Mean Tumor Weight” value (mouse sarcoma (MCG); 10 mg/kg s.c. once daily Days 1-9, Day 9)?
**A.** .643 gms

**Q.** And the “Mean Tumor Weight” value (mouse sarcoma (MCG); 50 mg/kg s.c. once daily Days 1-9, Day 9)?
**A.** .638 gms

**Q.** What about the “Mean Tumor Weight” value (mouse sarcoma (MCG); 100 mg/kg s.c. once daily Days 1-9, Day 9) of the same compound?
**A.** .473 gms

**Q.** And the “effect on tumor growth rate in vivo” value (mouse sarcoma (MCG); 1, 10, 50, 100 mg/kg s.c. once daily Days 1-9)?
**A.** dose dependent inhibiting effect

**Q.** What about the “NK-cells that acquired the CD69 antigen in response to IL-2” value ([1]; CD56+ NK-cells incubated with MO, DPI 1000 nM, IL-2 100 U/ml, 16 hrs, control 29.5%) of the same compound?
**A.** 79.0%

**Q.** What about the “MO-induced inhibition of T-cells and NK-cells (IL-2-induced CD69)” value ([1]; DPI, lymphocytes with MO, IL-2 100 U/ml, 16 hours) of the same compound?
**A.** significantly reversed

**Q.** And the “IL-2-induced expression of CD69 in T-cells or NK-cells” value ([1]; incubated in the absence of MO)?
**A.** did not increase

**Q.** What about the “viable CD56+/69+ (gated events)” value ([1]; lymphocytes with MO, DPI 100 nM, Fas:Fc-IgG 20 μg/ml, control 36) of the same compound?
**A.** 1248 gated events

**Q.** What about the “viable CD3+/CD69+ (gated events)” value ([1]; lymphocytes with MO, DPI 100 nM, Fas:Fc-IgG 20 μg/ml, control 89) of the same compound?
**A.** 701 gated events

**Q.** And the “reduction of released extracellular superoxide anion” value ([2]; DPI 10 nM, MO from three blood donors)?
**A.** more than four fold reduction

**Q.** For `NCCc1c[nH]cn1` [histamine, reference compound], which “inhibition of the concentration of extracellular superoxide anion” value ([2]; histamine at 50 μM) is on record?
**A.** more than five-fold

**Q.** With Catalase [reference compound] as the compound, how does the “MO-induced inhibition of IL-2-induced CD69 expression in T-cells and NK-cells” value ([1]; catalase at concentrations exceeding 50 U/ml) read?
**A.** significantly reversed

**Q.** For “superoxide dismutase [reference compound]”, which superoxide anion scavenged [3] is on record?
**A.** > 90%

**Q.** And the “MO-induced inhibition of IL-2-induced CD69 expression in T-cells and NK-cells” value ([1]; superoxide dismutase 200 U/ml)?
**A.** ineffective
